Assay results published in PMC3049939 (Chemical science (Royal Society of Chemistry : 2010), 2011).

Test system: porcine liver esterase (PLE)
Test: fluorogenic hydrolysis, Michaelis-Menten fit
Assay type: biochemical, Sus scrofa
Details: HEPES pH 7.4, 23 ± 2 °C, DMSO up to 1.5% v/v

| Molecule | Km (two ester groups per molecule) | Km |
| --- | --- | --- |
| CC(=O)Oc1ccc2c(c1)Oc1cc(OC(C)=O)ccc1C21OC(=O)c2ccccc21 [2a, fluorescein diacetate] | 11 µM | – |
| CC(=O)OCOc1ccc2nc3ccc(=O)cc-3oc2c1 [compound 9, Resorufin acetoxymethyl ether] | – | 21 µM |
| CC(=O)Oc1ccc2nc3ccc(=O)cc-3oc2c1 [compound 10, resorufin acetate] | – | 16 µM |
| Tokyo Green acetate [compound 7] | – | 12 µM |
| Tokyo green acetoxymethyl ether [compound 6] | – | 13 µM |
